Reference: patent US20110081293A1, “METHODS AND COMPOSITIONS RELATED TO CLOT-BINDING LIPID COMPOUNDS” (SANFORD-BURNHAM MEDICAL RESEARCH INSTITUTE, priority 2009, published 2011)
No end group written: not given here. fluorescent dye = not defined here

What was measured:
[1] = tested on: MDA-MB-435 human breast cancer xenografts; test: Tumor homing of intravenously injected fluorescent CREKA peptide; assay type: in vivo, mice
Description: (§1) Phage screening, tumors and peptides. In vivo screening of a peptide library with the general structure of CX7C (SEQ ID NO: 4), where C is cysteine and X is any amino acid, was carried out as described (Oh 2004) using 65- to 75-day-old transgenic MMTV PyMT mice (Hutchinson 2000). These mice express the polyoma virus middle T antigen (MT) under the transcriptional control of the mouse mammary tumor virus (MMTV), leading to the induction of multi-focal mammary tumors in 100% of carriers. MDA-MB-435 tumors in nude mice and peptide synthesis have been described (Laakkonen 2002; Laakkonen 2004). B16F1 murine melanoma tumors were grown in fibrinogen null mice (Suh 1995) and their normal littermates and used when they reached 0.5-1 cm in size (Pilch 2006).

PyMT tumors = test: as above; assay type: in vivo, mice; conditions: minutes to hours after the injection
Description: as §1

B16F1 melanomas = test: CREKA peptide homing in fibrinogen null mice and normal littermates; assay type: in vivo
Description: as §1

MDA-MB-435 tumor = test: Whole animal imaging of Alexa Fluor 647-labeled CREKA; assay type: in vivo, mouse; conditions: peptide labeled with Alexa 647
Description: (A). Balb/c nude mice bearing MDA-MB-435 human breast cancer xenograft tumors or transgenic MMTV PyMT mice with breast tumors were intravenously injected with 0.1 mg of fluorescein-CREKA. The animals were sacrificed by perfusion 24 hours post-injection and tissue sections were examined by fluorescent microscopy. Right panel, control organs of MDA-MB 435 tumor mice. Magnification 200×. (B). Whole animal imaging of MDA-MB-435 tumor mouse injected 6 hours earlier with 30 μg of Alexa Fluor 647-labeled CREKA. Maestro imaging system (Cambridge Research Inc., Woburn, Mass.) was used to acquire and process the image. The arrow points to the tumor and the arrowhead to the urinary bladder.

Substance: cys-arg-glu-lys-ala ({fluorescent dye}-CREKA; reading uncertain; also: dye identity not given here) [CREKA peptide]
- detection of intravenously injected peptide in tumors ([1]; MDA-MB-435 xenografts, minutes to hours after the injection): readily detectable
- detection of peptide in normal tissues ([1]; normal tissues): essentially undetectable
- detection of intravenously injected peptide in tumors (PyMT tumors): readily detectable
- accumulation in B16F1 melanomas (B16F1 melanomas; fibrinogen null mice): failed to accumulate
- accumulation in B16F1 tumors (B16F1 melanomas; normal littermates of the null mice): formed a brightly fluorescent meshwork
- whole body imaging, peptide accumulation (MDA-MB-435 tumor): peptide accumulation in the breast cancer xenografts, and in the bladder
